Experimental data taken from patent US20030013660A1, “Dioxolane analogs for improved inter-cellular delivery” (Shire BioChem Inc., priority 2000, published 2003).
Where two headings read alike, the source gives them in different places.

Tests used:
Assay in all cases: 3H-TdR (3H-thymidine) incorporation assay at 72 hr
MCF-7 = assay type: cell-based, Human; details: Homo sapiens
SF-268 = assay type: cell-based, Human; details: Homo sapiens
CCRF-CEM = assay type: cell-based; details: Homo sapiens, CCRF-CEM
Protocol: (§1) Table of IC50 Values (μM) for Controls
(§2) Exposition of 24 hr to drug, wash, incubated for another 48 hr (total of 72 hr assay)
(§3) (3H-Thymidine Incorporation Assay)

CEM/dCK- = assay type: cell-based; details: for IC50: Homo sapiens, CCRF-CEM; for Factor* (Resistance Factor = Ratio of dCK- on Wild-type CCRF-CEM): ratio of IC50 CEM/dCK- to CCRF-CEM, 24 h
Protocol: as §1, §2, §3

H-460 = assay type: cell-based, Human; details: Homo sapiens
[1] = MCF7, read-out: IC50 MCF-7 24 h, 24 h drug exposure, wash, another 48 hr, 3H-TdR incorporation at 72 hr
[2] = SF-268, read-out: IC50 SF-268 24 h, 24 h drug exposure, wash, another 48 hr, 3H-TdR incorporation at 72 hr
[3] = read-out: IC50 CCRF-CEM 24 h, 24 h drug exposure, wash, another 48 hr, 3H-TdR incorporation at 72 hr
[4] = read-out: IC50 CEM/dCK- 24 h, 24 h drug exposure, wash, another 48 hr, deoxycytidine kinase-deficient CCRF-CEM
[5] = NCI-H460, read-out: IC50 H-460 24 h, 24 h drug exposure, wash, another 48 hr, 3H-TdR incorporation at 72 hr
[6] = MCF7, read-out: IC50 MCF-7 24 h
[7] = SF-268, read-out: IC50 SF-268 24 h
[8] = NCI-H460, read-out: IC50 H-460 24 h

| Compound | IC50 (MCF-7; [1]) [nM] | IC50 (SF-268; [2]) [nM] | IC50 (CCRF-CEM; [3]) [nM] | IC50 (CEM/dCK-; [4]) [nM] | Factor* (Resistance Factor = Ratio of dCK- on Wild-type CCRF-CEM) (CEM/dCK-) | IC50 (H-460; [5]) [nM] | IC50 (MCF-7; [6]) [nM] | IC50 (SF-268; [7]) [nM] | IC50 (CCRF-CEM; read-out: IC50 CCRF-CEM 24 h) [nM] | IC50 (CEM/dCK-; read-out: IC50 CEM/dCK- 24 h) [nM] | IC50 (H-460; [8]) [nM] |
| --- | --- | --- | --- | --- | --- | --- | --- | --- | --- | --- | --- |
| CCCCC(C)C(=O)OC[C@H]1OC[C@@H](n2ccc(/N=C/N(C)C)nc2=O)O1 (stereo partly drawn) [Compound 64, (2S,4S)-2-(2″-METHYL- HEXANOICOXYMETHYL)-4- (4′-NN- DIMETHYLAMINOMETHYLENE- CYTOSIN-1′-YL)-1,3- DIOXOLANE] | 4.4 | 7.1 | 1.8 | 3600 | 2,000 | 1.7 | – | – | – | – | – |
| CCCCC(CC)C(=O)OC[C@H]1OC[C@@H](n2ccc(/N=C/N(C)C)nc2=O)O1 (stereo partly drawn) [Compound 65, (2S,4S)-2-(2″-ETHYL- HEXANOICOXYMETHYL)-4- (4′-N,N- DIMETHYLAMINOMETHYLENE- CYTOSIN-1′-YL)-1,3- DIOXOLANE] | 12 | 33 | 3.9 | 26000 | 6,667 | 11 | – | – | – | – | – |
| CC(C)OC(=O)OCOC[C@H]1OC[C@@H](n2ccc(N)nc2=O)O1.O=C(O)C(F)(F)F [Compound 68, CARBONIC ACID 4-(4- AMINO-2-OXO-2H- PYRIMIDIN-1-YL)- [1,3]DIOXOLAN-2- YLMETHOXYMETHYL ESTER ISOPROPYL ESTER TRIFLUOROACETIC ACID SALT] | 76 | 210 | 30 | > 100000 | 3,333 | 19 | – | – | – | – | – |
| CC(C(=O)OC[C@H]1OC[C@@H](n2ccc(/N=C/N(C)C)nc2=O)O1)c1ccccc1 (stereo partly drawn) [Compound 70, (2S,4S)-2-(2″- METHYLPHENYLACETOXY)MET HYL-4-(4′-N,N- DIMETHYLAMINOMETHYLENE- CYTOSIN-1′-YL)-1,3- DIOXOLANE] | 47 | 270 | 8.8 | 30000 | 3,409 | 36 | – | – | – | – | – |
| CCCCCOC(=O)Nc1ccn([C@@H]2CO[C@H](CO)O2)c(=O)n1 [Compound 71, [1-(2-HYDROXYMETHYL- [1,3]DIOXOLAN-4-YL)-2- OXO-1,2-DIHYDRO- PYRIMIDIN-4-YL]- CARBAMIC ACID PENTYL ESTER] | 130 | 810 | 180 | > 100000 | 556 | 310 | – | – | – | – | – |
| COc1ccc(OC(=O)Nc2ccn([C@@H]3CO[C@H](CO)O3)c(=O)n2)cc1 [Compound 73, [1-(2-HYDROXYMETHYL- [1,3]DIOXOLAN-4-YL)-2- OXO-1,2-DIHYDRO- […]-4-YL]- CARBAMIC ACID 4- METHOXY-PHENYL ESTER] | – | – | – | – | 990 | – | 260 | 30 | 100 | 99000 | 270 |
| CC(C)(C)OC(=O)N(CCCCCC(=O)Nc1ccn([C@@H]2CO[C@H](CO)O2)c(=O)n1)Cc1ccccc1 [Compound 77, Benzyl-{5-[1-(2-hydroxymethyl-[1,3]dioxolan-4-yl)-2-oxo-1,2-dihydro-pyrimidin-4-ylcarbamoyl]-pentyl}-carbamic acid tert-butyl ester] | 30 | 380 | 54 | 74000 | 1,370 | 59 | – | – | – | – | – |
| CC(C)(C)OC(=O)N(CCCCCC(=O)Nc1ccn([C@@H]2CO[C@H](COC(=O)CCCCCN(Cc3ccccc3)C(=O)OC(C)(C)C)O2)c(=O)n1)Cc1ccccc1 [Compound 78, 6-(Benzyl-tert-butoxycarbonyl-amino)-hexanoic acid 4-{4-[6-(benzyl-tert-butoxycarbonyl-amino)-hexanoylamino]-2-oxo-2H-pyrimidin-1-yl}-[1,3]dioxolan-2-ylmethyl ester] | 45 | 95 | 37 | 13000 | 351 | 42 | – | – | – | – | – |
| N=C(OC[C@H]1OC[C@@H](n2ccc(N)nc2=O)O1)C(Cl)(Cl)Cl [Compound 79] | – | – | – | – | 4,500 | – | 170 | 160 | 14 | – | 120 |
